From the supplement of paper PMC10307832

Columns and labels:
Test in all cases: relative viability (nuclei count vs DMSO), 5 days (fraction); higher = more cells survive
[1] = compound: CN(C)C(=N)NC(=N)N [Metformin] + CS(=O)(=O)N1CCN(Cc2cc3nc(-c4cccc5[nH]ncc45)nc(N4CCOCC4)c3s2)CC1 [Pictilisib] (partner 1 µM)
Method in brief: (§1)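 Lung cancer cell lines were pin-tool dosed in 1536-well plates on the day after seeding, with either a lone drug or a fixed anchor-drug dose plus five library-drug doses (not always all listed) in √10 steps. Nuclei were counted on 4× images after 5 days. Relative viability is the ratio of treated-well to vehicle-well nuclei counts, with each value a median of duplicate plates.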

[2] = compound: CN(C)C(=N)NC(=N)N [Metformin] + COc1cccc2cc(-c3nc([C@H]4CC[C@H](C(=O)O)CC4)n4ncnc(N)c34)[nH]c12 [OSI-027] (partner 0.5 µM)
Method in brief: as §1

[3] = compound: N#CC1(c2ccc(NC(=O)c3cccnc3NCc3ccncc3)cc2)CCCC1 [Apatinib] + Cc1nc(Nc2ncc(C(=O)Nc3c(C)cccc3Cl)s2)cc(N2CCN(CCO)CC2)n1 [Dasatinib] (partner 0.075 µM)
Method in brief: as §1

[4] = compound: N#CC1(c2ccc(NC(=O)c3cccnc3NCc3ccncc3)cc2)CCCC1 [Apatinib] + CS(=O)(=O)CCNCc1ccc(-c2ccc3ncnc(Nc4ccc(OCc5cccc(F)c5)c(Cl)c4)c3c2)o1 [Lapatinib] (partner 2 µM)
Method in brief: as §1

Cell Line | relative viability ([1]; first compound 10 µM) | relative viability ([1]; first compound 31.62 µM) | relative viability ([1]; first compound 316.23 µM) | relative viability ([1]; first compound 1000 µM) | relative viability ([2]; first compound 10 µM) | relative viability ([2]; first compound 31.62 µM) | relative viability ([2]; first compound 100 µM) | relative viability ([2]; first compound 316.23 µM) | relative viability ([2]; first compound 1000 µM) | relative viability ([3]; first compound 0.08 µM) | relative viability ([3]; first compound 0.253 µM) | relative viability ([3]; first compound 0.8 µM) | relative viability ([3]; first compound 2.53 µM) | relative viability ([3]; first compound 8 µM) | relative viability ([4]; first compound 0.08 µM) | relative viability ([4]; first compound 0.253 µM) | relative viability ([4]; first compound 0.8 µM) | relative viability ([4]; first compound 2.53 µM) | relative viability ([4]; first compound 8 µM) | relative viability ([1]; first compound 100 µM)
NCI-H2228 | 0.306 | 0.294 | 0.227 | 0.448 | 0.81 | 0.551 | 0.456 | 0.513 | 0.792 | 0.538 | 0.533 | 0.518 | 0.387 | 0.295 | 1.01 | 1.05 | 0.986 | 0.835 | 0.644 | –
NCI-H661 | 0.406 | 0.464 | 0.552 | 0.518 | 0.6 | 0.617 | 0.487 | 0.613 | 0.642 | 1.12 | 0.957 | 0.803 | 0.702 | 0.708 | 0.598 | 0.59 | 0.504 | 0.477 | 0.391 | 0.485
201T | – | 0.709 | 0.688 | 0.685 | – | 0.955 | 0.875 | 0.881 | 0.517 | 0.617 | 0.511 | 0.525 | 0.502 | 0.423 | 1.07 | 0.976 | 0.983 | 0.975 | 1.01 | 0.701
HARA | 0.504 | 0.468 | 0.496 | 0.46 | – | 0.6 | 0.529 | 0.47 | 0.515 | 0.373 | 0.242 | 0.209 | 0.213 | 0.248 | 0.755 | 0.895 | 0.674 | 0.731 | 0.623 | 0.497
ChaGo-K-1 | 0.824 | 1.12 | 0.801 | 0.906 | 0.595 | 0.599 | 0.6 | 0.543 | 0.597 | 0.603 | 0.535 | 0.642 | 0.547 | 0.501 | – | – | – | – | – | 0.686
NCI-H1648 | – | – | – | – | 0.24 | 0.264 | 0.264 | 0.285 | 0.279 | – | – | – | – | – | – | – | – | – | – | –
HCC-44 | 0.682 | 0.771 | 0.63 | 0.7 | 1.14 | 0.921 | 0.696 | 0.632 | 0.491 | – | – | – | – | – | 1.04 | 0.993 | 0.991 | 0.945 | 0.941 | 0.734
A549 | 0.428 | 0.517 | 0.464 | 0.0878 | – | – | – | – | – | – | – | – | – | – | 1.14 | 1.05 | 1.04 | 0.944 | 0.842 | 0.553
NCI-H2342 | – | – | – | – | 0.538 | 0.617 | 0.55 | 0.549 | 0.568 | 0.267 | 0.295 | 0.307 | 0.28 | 0.283 | – | – | – | – | – | –
NCI-H1299 | 0.834 | 0.98 | 0.645 | 0.479 | – | – | – | – | – | – | – | – | – | – | 0.99 | 1.01 | 0.981 | 0.938 | 0.773 | 0.9
LCLC-103H | 0.713 | 0.717 | 0.669 | 0.607 | 0.51 | 0.624 | 0.555 | 0.461 | 0.506 | 0.436 | 0.402 | 0.458 | 0.43 | 0.344 | – | – | – | – | – | 0.711
NCI-H522 | – | – | – | – | 0.796 | 0.752 | 0.708 | 0.744 | 0.667 | 0.872 | 0.882 | 0.884 | 0.892 | 0.782 | – | – | – | – | – | –
